The values below come from patent US20250289814A1, “COMPOUNDS AS PARP1 INHIBITIORS” (NINGBO NEWBAY TECHNOLOGY DEVELOPMENT CO., LTD., priority 2022, published 2025).

The structures appear in SMILES notation. Values after ≈ are worked out from the molar mass of the structure shown. Values joined by “and” are separate entries in the source; they are usually repeats but may differ in a detail not shown here. Identical values can stand only once. Like-named read-outs stand apart in the source and are kept apart here.

Data set [1] concerns DLD1-BRCA2−/− cells. Description: Cell proliferation assay in DLD1-BRCA2−/− cell lines (CellTiter-Glo, 7 days). Type of data set: cell-based. The method in brief:
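Cells in RPMI 1640 + 10% FBS seeded overnight, then exposed to compound or vehicle for 7 days at 37 °C, 5% CO2. Viability read on day 8 by CellTiter-Glo luminescence; % inhibition fitted to a four-parameter logistic curve for IC50.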
For orientation: In ATP-based viability assays light output follows the ATP content of the culture.

Data set [2] has as its target Recombinant full length PARP1 (Homo sapiens (Human), UniProt P09874). The experiment in a line: FP assay PARP1 (fluorescence anisotropy probe displacement). Type of data set: binding. The note with it: 20 nM PARP1, 8 nM fluorescent probe, 4 h, room temperature. As for the experimental part:
(§1) FP experiments were carried out at room temperature using no-binding black 384-well microplates. Recombinant full length PARP1 and PARP2 proteins produced in house were diluted to 20 nM and 60 nM, respectively, with assay buffer (50 mM Tris pH 8, 0.001% Triton X100, 10 mM MgCl2, and 150 mM NaCl) and incubated for 4 h with an equivalent volume of the 8 nM fluorescent probe diluted with assay buffer. Fluorescence anisotropy of the probe when bound to the proteins was measured in the presence of test compounds or solvent control and the effect on anisotropy determined. Polarization values were read using an Envision plate reader using excitation and emission wavelengths of 590 and 630 nm, respectively. All FP values are expressed as mP units. Inhibition ratio was calculated using readout (mP) following the equation as below: […]
(§2) % inhibition values for different test compound concentrations were calculated and fitted to a four parameter logistic plot in order to determine the IC50 value using XLfit.

Data set [3] can be described thus: Caco2 (A-B/B-A) permeability. Type of data set: in vitro ADME. The note with it: human; for Papp A→B at 120 min, 5 μM: Caco-2, pH 7.4, apical-to-basolateral, read-out: Caco2 A-B apparent permeability (Papp); for Papp A→B at 120 min, 5 μM / Papp B→A at 120 min, 5 μM: HBSS pH 7.4, 120 min, 37° C.; for Papp B→A at 120 min, 5 μM: Caco-2, pH 7.4, basolateral-to-apical, read-out: Caco2 B-A apparent permeability (Papp); for efflux ratio at 120 min, 5 μM: Caco-2, pH 7.4, PappB-A/PappA-B, read-out: Caco2 efflux ratio (ER). The method in brief: (§3)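 Bidirectional A-B and B-A transport of 5 μM compound across Caco-2 monolayers in HBSS (10 mM HEPES, pH 7.4), duplicate, ~37° C for 120 min. Donor and receiver levels measured by UPLC-MS/MS give Papp. Efflux ratio = PappB-A/PappA-B, with monolayer integrity checked by Lucifer yellow.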
On the technique in general: Caco-2 monolayers are a common model of the intestinal barrier.

The test system of data set [4] is Caco-2 cell monolayers. Description: Caco2 (A-B/B-A) permeability. Type of data set: in vitro ADME. The note with it: for Caco2 efflux ratio (ER): PappB-A/PappA-B; for Caco2 A-B apparent permeability (Papp): apical-to-basolateral; for Caco2 A-B apparent permeability (Papp) / Caco2 B-A apparent permeability (Papp): 5 μM, HBSS pH 7.4, 120 min, 37° C.; for Caco2 B-A apparent permeability (Papp): basolateral-to-apical. The method in brief:
as §3

Data set [5] has as its target Recombinant full length PARP2 (Homo sapiens (Human), UniProt Q9UGN5). The experiment in a line: FP assay PARP2 (fluorescence anisotropy probe displacement). Type of data set: binding. The note with it: 60 nM PARP2, 8 nM fluorescent probe, 4 h, room temperature. As for the experimental part: as §1, §2
Background: Polarisation of emitted light reports the rotation of a fluorescent probe.

The nature of data set [6]: Thermodynamic solubility, FaSSiF. Particulars: for solubility thermodynamic at 24 h: FaSSIF, 25 °C, thermodynamic from solid. Type of data set: physicochemical. The procedure: All incubations were performed in duplicate. Test compound or the control compound diclofenac sodium (1.0 mg) were placed into 1.5 mL glass vials. FaSSIF (1000 μL) was added into the vials. The samples were transferred to Eppendorf Thermomixer Comfort plate shaker and shaken at 25° C., 1100 rpm for 24 hours. The samples were then filtered. The filtrate was diluted by 1000-fold with water:acetonitrile 1:1 (v/v) for analysis by UPLC MS/MS to determine the concentration of test compound. The solubility value was calculated by quantification against a standard of known concentration.

Data set [7] can be described thus: Kinetic solubility, PBS, pH7.4. Type of data set: physicochemical. The note with it: 300 μM test compound. The procedure: After incubation, the samples were filtered, and the filtrate was diluted by 1000-fold with water:acetonitrile 1:1 (v/v) for analysis by UPLC MS/MS to determine the concentration of test compound. The solubility value was calculated by quantification against a standard of known concentration.

Where [8] appears, read: PBS pH 7.4, 25 °C, pH 7.4, aqueous buffer, kinetic from dmso stock.

One may read the IC50 as the point on the concentration scale where inhibition reaches its midpoint. For orientation: Papp A→B means how fast a substance crosses the layer from the apical side. Broadly, the Papp B→A is the apparent permeability from the basolateral to the apical side of a cell layer. The solubility (thermodynamic) is the concentration in solution at equilibrium with solid. For orientation: solubility (kinetic) means solubility judged after dilution from a stock solution rather than from solid.

Recombinant full length PARP1, sequence (P09874 whole entry): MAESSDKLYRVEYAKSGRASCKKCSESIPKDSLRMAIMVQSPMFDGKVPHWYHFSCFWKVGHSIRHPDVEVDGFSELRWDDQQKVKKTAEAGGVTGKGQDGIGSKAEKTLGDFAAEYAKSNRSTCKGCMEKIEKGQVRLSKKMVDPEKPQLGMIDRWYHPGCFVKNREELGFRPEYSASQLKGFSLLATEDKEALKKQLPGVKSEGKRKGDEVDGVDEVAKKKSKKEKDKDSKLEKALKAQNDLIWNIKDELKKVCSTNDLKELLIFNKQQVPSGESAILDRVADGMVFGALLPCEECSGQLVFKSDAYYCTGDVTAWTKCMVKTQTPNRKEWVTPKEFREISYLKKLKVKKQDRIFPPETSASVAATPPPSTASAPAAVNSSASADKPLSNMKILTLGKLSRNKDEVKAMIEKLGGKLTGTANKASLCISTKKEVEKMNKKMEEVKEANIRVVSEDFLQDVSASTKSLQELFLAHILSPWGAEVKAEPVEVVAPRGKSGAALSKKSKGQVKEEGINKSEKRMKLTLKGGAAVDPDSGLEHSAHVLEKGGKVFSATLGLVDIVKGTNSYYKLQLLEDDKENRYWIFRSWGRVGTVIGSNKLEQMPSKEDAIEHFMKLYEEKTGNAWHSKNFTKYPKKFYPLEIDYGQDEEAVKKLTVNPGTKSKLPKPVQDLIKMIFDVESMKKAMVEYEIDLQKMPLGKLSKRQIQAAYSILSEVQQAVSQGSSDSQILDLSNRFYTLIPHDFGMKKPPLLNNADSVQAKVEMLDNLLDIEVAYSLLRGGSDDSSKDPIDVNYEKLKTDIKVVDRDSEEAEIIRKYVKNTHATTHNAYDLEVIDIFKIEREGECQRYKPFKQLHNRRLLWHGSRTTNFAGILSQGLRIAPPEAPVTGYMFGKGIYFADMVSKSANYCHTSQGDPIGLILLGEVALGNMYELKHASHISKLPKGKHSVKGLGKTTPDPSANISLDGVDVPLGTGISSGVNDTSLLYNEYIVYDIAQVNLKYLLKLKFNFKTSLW
Recombinant full length PARP2, sequence (Q9UGN5 whole entry): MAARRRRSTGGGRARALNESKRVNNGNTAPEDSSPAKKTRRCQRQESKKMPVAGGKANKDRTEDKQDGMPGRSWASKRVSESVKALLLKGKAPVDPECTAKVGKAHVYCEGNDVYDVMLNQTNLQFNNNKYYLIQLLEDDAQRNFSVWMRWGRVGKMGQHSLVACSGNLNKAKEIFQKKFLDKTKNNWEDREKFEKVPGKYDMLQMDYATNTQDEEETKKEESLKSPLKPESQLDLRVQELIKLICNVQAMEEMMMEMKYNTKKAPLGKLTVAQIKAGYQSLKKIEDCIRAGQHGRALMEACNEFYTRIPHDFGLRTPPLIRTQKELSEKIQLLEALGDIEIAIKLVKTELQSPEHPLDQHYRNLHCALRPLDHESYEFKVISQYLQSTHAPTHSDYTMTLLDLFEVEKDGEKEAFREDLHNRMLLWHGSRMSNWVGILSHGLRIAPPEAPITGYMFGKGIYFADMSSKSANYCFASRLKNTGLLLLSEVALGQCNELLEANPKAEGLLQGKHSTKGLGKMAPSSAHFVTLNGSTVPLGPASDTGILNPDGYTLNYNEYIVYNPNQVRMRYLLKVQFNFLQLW

For the molecule `CCc1cc2cnc([C@@H](C)N3CC(Oc4ccc(C(=O)NC)nc4)C3)cc2[nH]c1=O` (single isomer, unassigned) [Compound 47, (enantiomer 1 or 2)-5-((1-(1-(3-ethyl-2-oxo-1,2-dihydro-1,6-naphthyridin-7-yl)ethyl)azetidin-3-yl)oxy)-N-methylpicolinamide], the IC50 in data set [1] (Homo sapiens, DLD-1, 168 h) was 26.8 nM; in data set [2], 5.8 nM; in data set [5], over 10000 nM. The Papp A→B at 120 min, 5 μM in data set [3] was 4.82 ×10⁻⁶ cm/s. In addition, the Papp B→A at 120 min, 5 μM in data set [3] was found to be 35.6 ×10⁻⁶ cm/s. Also, the “Caco2 efflux ratio (ER)” value in data set [4] is listed as “(ER = 7.38)”.
`CCc1cc2cnc([C@@H](C)N3CC(Oc4ccc(C(=O)NC)nc4)C3)cc2[nH]c1=O` (single isomer, unassigned) [Compound 48, (enantiomer 1 or 2)-5-((1-(1-(3-ethyl-2-oxo-1,2-dihydro-1,6-naphthyridin-7-yl)ethyl)azetidin-3-yl)oxy)-N-methylpicolinamide] registered an IC50 in data set [1] of 21.9 nM. Moreover, in data set [2], the IC50 was 5.1 nM. In data set [4], the “Caco2 efflux ratio (ER)” value is recorded as “(ER = 2.51)”, the “Caco2 A-B apparent permeability (Papp)” value is on record as 8.96 10*−6 cm/s and the “Caco2 B-A apparent permeability (Papp)” value was 22.47 10*−6 cm/s. The IC50 in data set [5] was over 10000 nM.
Take `CCc1nc2ccc([C@H](C)N3CC(Oc4ccc(C(=O)NC)nc4)C3)cc2[nH]c1=O` (single isomer, unassigned) [Compound 53, (enantiomer 1 or 2)-5-((1-(1-(2-ethyl-3-oxo-3,4-dihydroquinoxalin-6-yl)ethyl)azetidin-3-yl)oxy)-N-methylpicolinamide]: the IC50 in data set [1] is 12.1 nM; in data set [2] it was 24.2 nM; in data set [5] it was over 10000 nM. Moreover, the “Caco2 efflux ratio (ER)” value in data set [4] is reported as “(ER = 2.51)”. Further, the “Caco2 A-B apparent permeability (Papp)” value in data set [4] is 13.2 10*−6 cm/s. In addition, the “Caco2 B-A apparent permeability (Papp)” value in data set [4] is on record as 33.19 10*−6 cm/s.
The molecule `CCc1nc2ccc([C@H](C)N3CC(Oc4ccc(C(=O)NC)nc4F)C3)cc2[nH]c1=O` (single isomer, unassigned) [Compound 57, (enantiomer 1 or 2)-5-((1-(1-(2-ethyl-3-oxo-3,4-dihydroquinoxalin-6-yl)ethyl)azetidin-3-yl)oxy)-6-fluoro-N-methylpicolinamide] had a half-inhibitory concentration (IC50) in data set [1] of 9.1 nM. In addition, in data set [2], the IC50 came to 7.3 nM. Besides, in data set [4], the “Caco2 efflux ratio (ER)” value is “(ER = 2.38)”, the “Caco2 A-B apparent permeability (Papp)” value is listed as 12.25 10*−6 cm/s and the “Caco2 B-A apparent permeability (Papp)” value is listed as 29.21 10*−6 cm/s.
In data set [1], `CCc1cc2ncc([C@@H](C)N3CC(Oc4ccc(C(=O)NC)nc4F)C3)cc2[nH]c1=O` (single isomer, unassigned; enantiomer 2) [Compound 46, (enantiomer 2)-5-((1-(1-(7-ethyl-6-oxo-5,6-dihydro-1,5-naphthyridin-3-yl)ethyl)azetidin-3-yl)oxy)-6-fluoro-N-methylpicolinamide] returned an IC50 of 6.6 nM. Besides, the IC50 in data set [2] amounted to 4.3 nM. Further, in data set [4], the “Caco2 efflux ratio (ER)” value is listed as “(ER = 8.07)”, the “Caco2 A-B apparent permeability (Papp)” value is on record as 5.51 10*−6 cm/s and the “Caco2 B-A apparent permeability (Papp)” value is 44.49 10*−6 cm/s. In data set [5], the half-maximal inhibitory concentration (IC50) amounted to 2580 nM.
With `CCc1cc2cnc([C@H](C)N3CC(Oc4ccc(C(=O)NC)nc4F)C3)cc2[nH]c1=O` (single isomer, unassigned; enantiomer 2) [Compound 50, (enantiomer 2)-5-((1-(1-(3-ethyl-2-oxo-1,2-dihydro-1,6-naphthyridin-7-yl)ethyl)azetidin-3-yl)oxy)-6-fluoro-N-methylpicolinamide], it took 7.2 nM to reach half-maximal inhibition in data set [1] (IC50). Moreover, in data set [2], the IC50 was 18.1 nM. Besides, in data set [4], the “Caco2 efflux ratio (ER)” value is “(ER = 8.36)”, the “Caco2 A-B apparent permeability (Papp)” value is recorded as 3.84 10*−6 cm/s and the “Caco2 B-A apparent permeability (Papp)” value is on record as 32.1 10*−6 cm/s. The IC50 in data set [5] was over 10000 nM.
In the case of `CCc1cc2ncc(CN3CC(Oc4ccc(C(=O)NC)nc4)C3)cc2[nH]c1=O` [Compound 1, 5-((1-((7-ethyl-6-oxo-5,6-dihydro-1,5-naphthyridin-3-yl)methyl)azetidin-3-yl)oxy)-N-methylpicolinamide], the IC50 in data set [1] (Homo sapiens, DLD-1, 168 h) was 4.5 nM; in data set [2] it was 4.8 nM. This molecule also gave a thermodynamic solubility at 24 h in data set [6] of 1.77 µg/mL (≈ 4.5 µM). The molecule further yielded a solubility (kinetic) at 2 h in data set [7] (setting [8]) of 29.4 µM (≈ 11.6 µg/mL). Also, the Papp A→B at 120 min, 5 μM in data set [3] turned out to be 3.86 ×10⁻⁶ cm/s. In addition, the Papp B→A at 120 min, 5 μM in data set [3] amounted to 22.7 ×10⁻⁶ cm/s.
On to `CCc1cc2ncc([C@@H](C)N3CC(Oc4ccc(C(=O)NC)nc4)C3)cc2[nH]c1=O` [Compound 4, (R)-5-((1-(1-(7-ethyl-6-oxo-5,6-dihydro-1,5-naphthyridin-3-yl)ethyl)azetidin-3-yl)oxy)-N-methylpicolinamide], for which the IC50 is 216 nM in data set [1] (Homo sapiens, DLD-1, 168 h); 10.3 nM in data set [2]; over 10000 nM in data set [5]. Moreover, the solubility (thermodynamic) at 24 h in data set [6] was found to be 115 µg/mL (≈ 283 µM). The solubility (kinetic) at 2 h in data set [7] (setting [8]) amounted to 223 µM (≈ 90.9 µg/mL). In addition, the efflux ratio at 120 min, 5 μM in data set [3] was found to be 7.49. Besides, the Papp A→B at 120 min, 5 μM in data set [3] amounted to 4.77 ×10⁻⁶ cm/s. Further, the Papp B→A at 120 min, 5 μM in data set [3] is 35.7 ×10⁻⁶ cm/s.
As to `CCc1cc2ncc([C@H](C)N3CC(Oc4ccc(C(=O)NC)nc4)C3)cc2[nH]c1=O` [Compound 5, (S)-5-((1-(1-(7-ethyl-6-oxo-5,6-dihydro-1,5-naphthyridin-3-yl)ethyl)azetidin-3-yl)oxy)-N-methylpicolinamide], the IC50 in data set [1] (Homo sapiens, DLD-1, 168 h) stood at 6.9 nM; in data set [2], 5.2 nM; in data set [5] it was 3120 nM. The “Thermodynamic Solubility, FaSSiF” value in data set [6] (25° C., 24 hours) is 145.89 µg/mL and 126.09 µg/mL. The molecule further registered a thermodynamic solubility at 24 h in data set [6] of 107 µg/mL (≈ 262 µM). Besides, the solubility (kinetic) at 2 h in data set [7] (25° C., read-out: Kinetic solubility, PBS, pH 7.4) is 281.58 µM (≈ 115 µg/mL); in data set [7] (setting [8]), 250 µM (≈ 102 µg/mL). For the same molecule, the efflux ratio at 120 min, 5 μM in data set [3] stood at 9.78. Moreover, in data set [3], the apical-to-basolateral permeability (Papp A→B) at 120 min, 5 μM worked out at 3.39 ×10⁻⁶ cm/s. The Papp B→A at 120 min, 5 μM in data set [3] came to 33.2 ×10⁻⁶ cm/s.
